Source: patent US20230310445A1, “LOX ENZYME INHIBITING METHODS AND COMPOSITIONS” (ANOVIA BIOSCIENCES, INC., priority 2020, published 2023)
Blank lines part the entries; values can stand above or below the compound they belong to.

Columns and labels:
[1] = biological target: T1, Bovine lysyl oxidase (LOX) (Bos taurus, UniProt P33072); assay: LOX inhibition assay (fluorometric, cadaverine/Amplex Red/HRP); assay type: biochemical; settings: IC50 class; bovine tendon LOX, cadaverine substrate; read-out: Activity Range LOX
T1 construct: from tissue; host or cells: adult bovine tendon
T1 sequence (P33072 170-418): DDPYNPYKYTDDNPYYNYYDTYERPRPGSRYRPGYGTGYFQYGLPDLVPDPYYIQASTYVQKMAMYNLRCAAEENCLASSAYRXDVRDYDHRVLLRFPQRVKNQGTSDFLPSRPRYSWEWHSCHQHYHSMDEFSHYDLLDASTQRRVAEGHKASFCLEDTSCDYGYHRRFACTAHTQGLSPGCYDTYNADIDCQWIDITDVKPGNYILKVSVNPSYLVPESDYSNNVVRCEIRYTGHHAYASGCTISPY
Description: (§1) The ability of compounds to inhibit prototypic LOX was determined using a fluorometric assay. This assay measures the activity of lysyl oxidases by coupling the reaction with horseradish peroxidase-catalyzed […]. The activity assay protocol uses cadaverine as substrate that releases hydrogen peroxide upon transformation by prototypic LOX enzyme present in the sample. Hydrogen peroxide is in turn detected using a red fluorescence substrate for HRP-coupled reactions (Amplex Red Enzyme Assays, Thermo Scientific Fisher). This leads to increase in fluorescence that can be easily detected at Ex/Em=540/590 nm in a fluorescence microplate reader.
Enzyme: Bovine lysyl oxidase (LOX) was extracted by adapting the methodology from [Kagan et al. 1979 and Borel et al. 2001.] from bovine tendon: Frozen adult bovine tendon was placed in room temperature water to defrost, and then membranes were removed and the remaining tissue cut into 1 cm pieces. The material was first passed through a course mesh meat grinder, and this mince was passed through a fine mesh grinder. The mince was homogenized in 10 v/w of buffer (16 mM sodium phosphate buffer pH 7.8, 400 mM NaCl) using a Waring blender. The homogenate was centrifuged at 15,000×g for 15 min at 4° C. After centrifugation, the supernatant was discarded and the pellets resuspended in 10 volumes of the same buffer. The mixture was blended again and centrifuged with the same settings. This time the pellets were blended in 3 volumes of extraction buffer (16 mM sodium phosphate buffer pH 7.8) and left to incubate at 4° C. for 2 h. After this time, the slurry was centrifuged with the same settings as described above. The supernatant was used in an ultrafiltration step to remove large proteins by size exclusion through a 30 kDalton filter (EMD Millipore). The filtrate was mixed with DEAE Sephadex (GE Healthcare), or passed over a MonoQ FPLC column. After two washes, one in 16 mM sodium phosphate buffer pH 7.8, 380 mM NaCl, and another in 16 mM sodium phosphate buffer pH 7.8, the proteins were eluted with 16 mM sodium phosphate pH 7.8, 10 μM CuSO4, and 4 M urea. Fractions containing Lox activity were collected and stored frozen at −70° C.
Reaction: Final concentration in the LOX assay was as following and performed in a total volume of […]:
Experimental procedure: 7 μl of freshly prepared reaction buffer were delivered to reaction wells. Compounds were resuspended in 100% DMSO at 10 mM and delivered into buffer using acoustic technology (Echo550; nanoliter range). A 2.85× solution of LOX protein in reaction buffer was prepared (“LOX solution”) and 7 μl of LOX solution was added into the reaction wells. Buffer only was added to column 1 for no protein control. Reactions were incubated for 30 minutes at 37° C. A 3.33× mixture of cadaverine, Amplex Red, and HRP (“Substrate/Detection Mix) was prepared and subsequently 6 μL of the mixture was added to each reaction well. Progress of reactions was monitored for 120 minutes at 37° C. using Clariostar plate reader (ex530-12, ems 600-40). For all activity assays, pan-LOX inhibitor CCT365623 (Tang et al, 2017) and LOXL2/LOXL3 inhibitor PAT-1251 (PharmaKea) were included as standards.
Data analysis: Slope of the linear portion of the progress curve was calculated using Clariostar software. Typical analysis interval was between 20-50 min, but varied between experiments. The background subtracted signals (No protein wells were considered as background) were converted to % activity relative to DMSO controls. Data was analyzed using GraphPad Prism 4 with “sigmoidal dose-response (variable slope)”; 4 parameters with Hill Slope. Constraints: Bottom=Constant equal to 0. Top=Must be less than 120.

[2] = biological target: T2, Recombinant human LOXL2 (lysyl oxidase like 2) (Homo sapiens, UniProt Q9Y4K0); assay: LOXL2 inhibition assay (fluorometric, cadaverine/Amplex Red/HRP); assay type: biochemical; settings: IC50 class; recombinant human LOXL2, cadaverine substrate; read-out: Activity Range LOXL2
T2 construct: purchased R&D systems
T2 sequence (Q9Y4K0 26-774): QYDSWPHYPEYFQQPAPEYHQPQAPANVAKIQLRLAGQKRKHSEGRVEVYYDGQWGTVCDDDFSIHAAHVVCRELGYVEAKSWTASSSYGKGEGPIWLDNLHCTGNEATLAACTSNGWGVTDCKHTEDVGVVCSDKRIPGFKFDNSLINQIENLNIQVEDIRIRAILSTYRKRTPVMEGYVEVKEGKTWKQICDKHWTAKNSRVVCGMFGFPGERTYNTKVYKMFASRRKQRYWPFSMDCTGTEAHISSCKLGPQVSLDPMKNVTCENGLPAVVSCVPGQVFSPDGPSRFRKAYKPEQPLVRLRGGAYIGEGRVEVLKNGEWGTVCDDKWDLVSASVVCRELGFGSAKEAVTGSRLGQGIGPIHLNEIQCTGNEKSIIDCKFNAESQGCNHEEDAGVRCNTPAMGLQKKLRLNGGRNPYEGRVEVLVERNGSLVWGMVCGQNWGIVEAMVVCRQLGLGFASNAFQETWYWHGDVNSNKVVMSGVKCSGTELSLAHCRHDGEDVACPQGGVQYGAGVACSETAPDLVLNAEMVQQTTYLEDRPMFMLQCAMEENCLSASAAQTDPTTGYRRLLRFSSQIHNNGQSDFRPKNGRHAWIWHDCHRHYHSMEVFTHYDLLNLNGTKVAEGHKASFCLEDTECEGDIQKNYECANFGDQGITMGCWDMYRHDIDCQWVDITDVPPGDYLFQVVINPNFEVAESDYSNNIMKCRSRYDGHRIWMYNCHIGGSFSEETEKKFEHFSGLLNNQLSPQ
Description: as §1, with “inhibit one or more of the lysyl oxidases LOXL2 and/or LOXL3” for “inhibit prototypic LOX”, “by the specific” for “by prototypic”, “LOX family” for “LOX”
Enzymes: Recombinant human LOXL2 (lysyl oxidase like 2) and recombinant human LOXL3 (lysyl oxidase like 3) were purchased from R&D systems and assays were performed in 1.2 M urea, 50 mM sodium borate buffer pH 8.0, and 10 mM CaCl.
Reaction: Final concentration in the LOXL2 and LOXL3 assays were as following and performed in a total volume of […]:
Experimental procedure: 5 μl of freshly prepared reaction buffer were delivered to reaction wells. Compounds were resuspended in 100% DMSO at 10 mM and delivered into buffer using acoustic technology (Echo550; nanoliter range). A 3× solution of LOXL2 or LOXL3 in reaction buffer was prepared (“enzyme solution”) and 5 μL of enzyme solution was added into the reaction wells. Buffer only was added to column 1 for no protein control. Reactions were incubated for 30 minutes at 37° C. A 3×mixture of cadaverine, Amplex Red, and HRP (“Substrate/Detection Mix) was prepared and subsequently 5 μL of the mixture added to each reaction well. Progress of reactions was monitored for 60 minutes at 37° C. using Clariostar plate reader (ex 530-12, ems 600-40). For all activity assays, pan-LOX inhibitor CCT365623 (Tang et al, 2017) and LOXL2/LOXL3 inhibitor PAT-1251 (PharmaKea) were included as standards.
Data analysis: Slope of the linear portion of the progress curve was calculated using Clariostar software. Typical analysis interval was between 8-30 min, but varied between experiments. The background subtracted signals (No protein wells are considered as background) were converted to % activity relative to DMSO controls. Data was analyzed using GraphPad Prism 4 with “sigmoidal dose-response (variable slope)”; 4 parameters with Hill Slope. Constraints: Bottom=Constant equal to 0. Top=Must be less than 120.

SMILES: NCc1cccc(O[C@H]2C[C@H](c3ccccc3)CN(C(=O)N3CCS(=O)(=O)CC3)C2)c1 (racemic) [Example 82, trans-(3-(3-(Aminomethyl)phenoxy)-5-phenylpiperidin-1-yl)(1,1-dioxidothiomorpholino)methanone]
IC50 [1]: > 30 µM
IC50 [2]: 1 to 30 µM

SMILES: CS(=O)(=O)N1C[C@@H](Oc2cc(CN)ccc2F)C[C@H](c2ccccc2)C1 (racemic) [Example 90, trans-(4-Fluoro-3-((-1-(methylsulfonyl)-5-phenylpiperidin-3-yl)oxy)phenyl)Methanamine 2,2,2-trifluoroacetate]
IC50 [1]: > 30 µM
IC50 [2]: 0.5 to 1 µM

SMILES: CS(=O)(=O)N1C[C@@H](Oc2cc(CN)ccc2F)C[C@H](c2ccccc2F)C1 (racemic) [Example 93, trans-(4-Fluoro-3-((-5-(2-fluorophenyl)-1-(methylsulfonyl)piperidin-3-yl)oxy)phenyl)methanamine 2,2,2-trifluoroacetate]
IC50 [1]: > 30 µM
IC50 [2]: ≤ 0.5 µM

SMILES: CN(C)C(=O)N1C[C@@H](c2ccccc2)C[C@H](S(=O)(=O)c2cccc(CN)c2)C1 (racemic) [Example 94, trans-3-((3-(Aminomethyl)phenyl)sulfonyl)-N,N-dimethyl-5-phenylpiperidine-1-carboxamide 2,2,2-trifluoroacetate]
IC50 [1]: > 30 µM
IC50 [2]: 0.5 to 1 µM

SMILES: NCc1cccc(S(=O)(=O)N2C[C@@H](C(=O)N3CCS(=O)(=O)CC3)C[C@@H](C(F)(F)F)C2)c1 (racemic) [Example 99, cis-(1-((3-(Aminomethyl)phenyl)sulfonyl)-5-(trifluoromethyl)piperidin-3-yl)(1,1-dioxidothiomorpholino)methanone 2,2,2-trifluoroacetate]
IC50 [1]: > 30 µM
IC50 [2]: 1 to 30 µM

SMILES: CC(N)c1cccc(S(=O)(=O)N2C[C@@H](C(=O)N3CCOCC3)C[C@@H](c3ccccc3)C2)c1 (mixture of isomers) [Example 102RAC, cis-(1-((3-(1-Aminoethyl)phenyl)sulfonyl)-5-phenylpiperidin-3-yl)(morpholino)methanone 2,2,2-trifluoroacetate]
IC50 [1]: > 30 µM
IC50 [2]: > 30 µM

Continued, values first:

IC50 [1]: > 30 µM
IC50 [2]: 0.5 to 1 µM
SMILES: CS(=O)(=O)N1C[C@H](Oc2cc(CN)ccc2F)C[C@H](c2ccccc2F)C1 (racemic) [Example 71, cis-(4-Fluoro-3-((-5-(2-fluorophenyl)-1-(methylsulfonyl)piperidin-3-yl)oxy)phenyl)methanamine 2,2,2-trifluoroacetate]

IC50 [1]: > 30 µM
IC50 [2]: 1 to 30 µM
SMILES: NCc1cccc(O[C@@H]2C[C@H](c3ccccc3)CN(C(=O)N3CCOCC3)C2)c1 (racemic) [Example 72]

IC50 [1]: > 30 µM
IC50 [2]: 1 to 30 µM
SMILES: NCc1cccc(O[C@@H]2C[C@H](c3ccccc3)CN(C(=O)N3CCS(=O)(=O)CC3)C2)c1 (racemic) [Example 73, cis-(3-(3-(Aminomethyl)phenoxy)-5-phenylpiperidin-1-yl)(1,1-dioxidothiomorpholino)methanone]

IC50 [1]: ≤ 0.5 µM
IC50 [2]: ≤ 0.5 µM
SMILES: NCc1ccc(S(=O)(=O)N2C[C@@H](C(=O)N3CCS(=O)(=O)CC3)C[C@@H](c3ccccc3)C2)s1 (racemic) [Example 75, cis-(1-((5-(Aminomethyl)thiophen-2-yl)sulfonyl)-5-phenylpiperidin-3-yl)(1,1-dioxidothiomorpholino)methanone 2,2,2-trifluoroacetate]

IC50 [1]: ≤ 0.5 µM
IC50 [2]: ≤ 0.5 µM
SMILES: CS(=O)(=O)N1CCN(C(=O)[C@H]2C[C@@H](c3ccccc3)CN(S(=O)(=O)c3ccc(CN)s3)C2)CC1 (racemic) [Example 76]

IC50 [1]: > 30 µM
IC50 [2]: 1 to 30 µM
SMILES: NCc1cccc(S(=O)(=O)N2C[C@@H](C(=O)N3CCS(=O)(=O)CC3)C[C@@H](c3ccccc3)C2)c1 (racemic) [Example 77]

IC50 [1]: > 30 µM
IC50 [2]: 0.5 to 1 µM
SMILES: CS(=O)(=O)N1CCN(C(=O)[C@H]2C[C@@H](c3ccccc3)CN(S(=O)(=O)c3cccc(CN)c3)C2)CC1 (racemic) [Example 78, cis-(1-((3-(Aminomethyl)phenyl)sulfonyl)-5-phenylpiperidin-3-yl)(4-(methylsulfonyl)piperazin-1-yl)methanone 2,2,2-trifluoroacetate]

IC50 [1]: 1 to 30 µM
IC50 [2]: ≤ 0.5 µM
SMILES: CS(=O)(=O)N1CCN(C(=O)[C@@H]2C[C@@H](c3ccccc3)CN(S(=O)(=O)c3cccc(CN)c3)C2)CC1 (racemic) [Example 84, trans-(1-((3-(Aminomethyl)phenyl)sulfonyl)-5-phenylpiperidin-3-yl)(4-(methylsulfonyl)piperazin-1-yl)methanone 2,2,2-trifluoroacetate]
